Columns and labels:
[1] = system: PCSK9 secreted by HepG2 cells; experiment: Effect on the concentration of PCSK9 secreted by HepG2 cells (ELISA); format: cell-based; conditions: Homo sapiens, 48 hours, PCSK9 in culture medium by ELISA
Method: 1. Experimental objective: To detect the inhibitory effect of the compounds on PCSK9.
2. Experimental method: • 1) HepG2 cell strain was cultured in the complete culture medium at 37° C., 5% CO2 to 70-90% confluence. • 2) The cells were digested and resuspended in the experimental culture medium, inoculated at 25,000 cells/well/200 μL in a 96-well cell culture plate, and cultured at 37° C. and 5% CO2 for 20-24 hours. • 3) The culture medium was removed from the cell culture plate, and the cell culture plate was washed once by adding 200 ul of the experimental culture medium to each well. • 4) Preparation of positive control compound and compound to be tested: the positive control compound and the compound to be tested were diluted on the compound plate. • 5) The diluted compound was added to the cell culture plate at 250 μL per well and incubated at 37° C. and 5% CO2 for 48 hours. • 6) The cell culture medium was collected at 200 μL per well and cryopreserved at −80° C. for later use. • 7) A sample of the cell culture medium was taken from the −80° C. cryopreservation condition, dissolved, vortexed, and centrifuged for later use. • 8) Preparation of standard curve: corresponding volumes of Dilution buffer were successively added to respective standard tubes, and in the order of the concentrations of 10, 5, 2.5, 1.25, 0.625, 0.313, 0.16, 0 ng/mL, the standard was diluted in series by taking the corresponding volume from the original tube or the last concentration tube. • 9) Preparation of washing liquid: 10x Wash buffer was diluted into 1x with Milli-Q for later use. • 10) According to the standard curve wells and sample wells set according to a plate map, 100 μL/well of the corresponding standards and culture medium samples were added to the wells, with 2 replicate wells. A self-adhesive seal was applied, the plate was placed on a plate shaker at room temperature, gently shaken, uniformly mixed, and incubated for 1 hour. • 11) The plate was placed on the plate washer, the washing liquid was set to 350 μL per well, and the plate was washed 4 times repeatedly. • 12) 100 μL/well of an HRP-conjugated detection antibody was added, a self-adhesive seal was applied, and the plate was placed on the plate shaker, well mixed uniformly, and incubated for 1 hour. • 13) The plate was placed on the plate washer, the washing liquid was set to 350 μL per well, and the plate was washed 4 times repeatedly. • 14) 100 μL/well of Substrate reagent was added, and the plate was placed in the dark, applied with a self-adhesive seal, placed on the plate shaker, well mixed uniformly, and incubated for 10-20 minutes. • 15) 100 μL of Stop solution (1N H2SO4) was added to each well and mixed uniformly. • 16) The optical density (OD) value in each well was measured in sequence at a wavelength of 450 nm by the microplate reader. Detection was carried out within 30 min after the reaction was stopped.
3. Experimental data processing method: After the OD values were read by the microplate reader, the OD value of the 0-concentration standard in the standard group was subtracted from the OD values of the standards, control group, and samples to obtain the actual OD values for these wells. A standard curve was plotted with Graphpad and the concentration of the sample was calculated. If the dilution was performed during the sample detection, the calculated sample concentration was necessarily multiplied by the corresponding dilution ratio in the final calculation, which was the actual concentration of the sample. Inhibition rate=(actual concentration in control−actual concentration in sample)/actual concentration in control*100. According to the inhibition rates corresponding to the different concentrations, IC50 was derived by Graphpad.

PCSK9 protein = target: T1, PCSK9 protein (Homo sapiens, UniProt Q8NBP7); experiment: Binding ability to PCSK9 protein (HTRF); conditions: PCSK9-His, Alexa Fluor 647 probe compound
T1 construct: purchased Sino biology (Sino Biological) 29698-H08H
Method: 1. Experimental objective: To detect the action of compounds to bind PCSK9 protein by an HTRF method.
3. Experimental data processing method: Four-parameter log(inhibitor) vs. response—Variable slope (four parameters) in XLit was used to perform non-linear fitting of the compound concentration and the corresponding inhibition rate, and IC50 was calculated.

[2] = Pharmacokinetic determination in mice (PO 5 mg/kg, IV 1 mg/kg); format: in vivo, C57BL/6J mice; conditions: male, C57BL/6J, mouse, plasma, C57 mice, PO administration, 5 mpk; for AUC(0-inf): read-out: Area under the curve AUC0-∞; for half-life: read-out: Half-life t1/2 (converted); for MRT: read-out: Mean residence time MRT; for Cmax: read-out: Plasma concentration Cmax; for Tmax: read-out: Time to peak tmax
Method: 1. Experimental objective: C57BL/6J mice were used as test animals to study the pharmacokinetic behavior of the compounds of the present disclosure in mice (plasma) after oral and intravenous administration.
2.2 Test animals: C57 mice, male, purchased from Shanghai Bk Lab Animal Co., Ltd., with animal production license number (SCXK (Shanghai) 2013-0006 N0.311620400001794).
2.3 Drug preparation: Preparation of oral drug: 10% Solutol HS15
10 g of Solutol HS15 solid was weighed, dissolved in 90 mL of pure water, uniformly mixed, stirred, and ultrasonically treated to form a clear solution. The compound of the present disclosure was weighed and dissolved in this solution, uniformly shaken, and ultrasonically treated for 15 minutes to obtain a colorless clear solution with a concentration of 0.5 mg/mL. Preparation of intravenous drug: 5% DMSO+10% Solutol HS15+85% PBS, the compound of the present disclosure was weighed, 5% DMSO was first added on the basis of the proportion relative to the total volume of administration, and the mixture was vortexed and ultrasonically treated for 2 min until it was completely dissolved; 10% of Solutol HS15 was then added, and the mixture was vortexed and ultrasonically treated for 2 min until it was completely dissolved; and finally, 85% of PBS was added, and the mixture was vortexed, ultrasonically treated for 5 min, and filtered through a 0.22 um filter membrane to obtain a colorless and transparent clear solution with a concentration of 0.2 mg/mL.
2.4 Administration: 3 male C57 mice were fasted overnight and then respectively administered PO at a dose of 5 mg/kg and a volume of 10 mL/kg. 3 male C57 mice were fasted overnight and then respectively administered IV at a dose of 1 mg/kg and a volume of 5 mL/kg.
2.5 Sample collection: Before and after administration of mice, 0.04 mL of blood was collected from the orbit at 0.083 (iv), 0.25, 0.5, 1, 2, 4, 8, and 24 hours, and placed in EDTA-K2 test tubes, which was centrifuged at 6000 rpm at 4° C. for 6 min to separate plasma which was stored at −80° C.; and the […] were fed 4 h after administration.
2.6 Determination results: The final determination results were obtained by using an LCMS/MS method.
3. Experimental results: The main pharmacokinetic parameters were calculated using WinNonlin 6.1.

T1 sequence (Q8NBP7 153-692): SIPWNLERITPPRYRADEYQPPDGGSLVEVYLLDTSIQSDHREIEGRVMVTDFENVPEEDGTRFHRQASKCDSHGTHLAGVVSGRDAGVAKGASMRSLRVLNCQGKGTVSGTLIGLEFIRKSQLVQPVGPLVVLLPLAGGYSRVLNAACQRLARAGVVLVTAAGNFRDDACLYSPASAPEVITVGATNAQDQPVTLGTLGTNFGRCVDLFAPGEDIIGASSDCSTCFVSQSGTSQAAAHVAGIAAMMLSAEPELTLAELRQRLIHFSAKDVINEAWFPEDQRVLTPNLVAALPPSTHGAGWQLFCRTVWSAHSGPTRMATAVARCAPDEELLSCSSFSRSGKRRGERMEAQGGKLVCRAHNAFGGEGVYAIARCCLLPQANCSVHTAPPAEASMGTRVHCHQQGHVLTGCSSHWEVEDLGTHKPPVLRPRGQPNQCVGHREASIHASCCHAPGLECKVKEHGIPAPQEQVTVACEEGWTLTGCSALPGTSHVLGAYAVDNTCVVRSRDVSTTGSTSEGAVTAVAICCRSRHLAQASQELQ

Row | SMILES | IC50 [1] [nM] | IC50 (PCSK9 protein) [nM] | further results
1 | O=C1c2ccc(C3CC3)nc2CN1c1ccc(N[C@H]2CC[C@H](Nc3nc4cc(C(F)(F)F)ccn4n3)C2)nc1 [Example 68, 2-cyclopropyl-6-(6-(((1S,3S)-3-((7-(trifluoromethyl)-[1,2,4]triazolo[1,5-a]pyridin-2-yl)amino)cyclopentyl)amino)pyridin-3-yl)-6,7-dihydro-5H-pyrrolo[3,4-b]pyridin-5-one] | 2000 | 9.8 | 
2 | N#Cc1nccc2c1CN(c1ccc(N[C@H]3CC[C@H](Nc4nc5cc(C(F)(F)F)ccn5n4)C3)nc1)C2=O [Example 76, 1-carbonyl-2-(6-(((1S,3S)-3-((7-(trifluoromethyl)-[1,2,4]triazolo[1,5-a]pyridin-2-yl)amino)cyclopentyl)amino)pyridin-3-yl)-2,3-dihydro-1H-pyrrolo[3,4-c]pyridine-4-carbonitrile] | 4800 | 13.9 | 
3 | CC(C)(O)c1ccn(-c2ccc(=O)n(-c3ccc(N[C@H]4CC[C@H](Nc5nc6cc(C(F)(F)F)ccn6n5)C4)nc3)c2)n1 [Example 79, 5-(3-(2-hydroxypropan-2-yl)-1H-pyrazol-1-yl)-6′-(((1S,3S)-3-((7-(trifluoromethyl)-[1,2,4]triazolo[1,5-a]pyridin-2-yl)amino)cyclopentyl)amino)-2H-[1,3′-bipyridine]-2-one] | 15100 | 24.9 | 
4 | Cc1ccc2c(c1)C(=O)N(c1ccc(N[C@H]3CC[C@H](Nc4nc5cc(C(F)(F)F)ccn5n4)C3)nc1)C2 [Example 82, 6-methyl-2-(6-(((1S,3S)-3-((7-(trifluoromethyl)-[1,2,4]triazolo[1,5-a]pyridin-2-yl)amino)cyclopentyl)amino)pyridin-3-yl)isoindolin-1-one] | 800 | 11.8 | 
5 | O=C1c2cc(F)ccc2CN1c1ccc(N[C@H]2CC[C@H](Nc3nc4cc(C(F)(F)F)ccn4n3)C2)nc1 [Example 83, 6-fluoro-2-(6-(((1S,3S)-3-((7-(trifluoromethyl)-[1,2,4]triazolo[1,5-a]pyridin-2-yl)amino)cyclopentyl)amino)pyridin-3-yl)isoindolin-1-one] | 1100 | 11.5 | 
6 | O=C1c2ccccc2CN1c1ccc(N[C@H]2CC[C@H](Nc3nc4cc(C(F)(F)F)ccn4n3)C2)nc1 [Example 84, 2-(6-(((1S,3S)-3-((7-(trifluoromethyl)-[1,2,4]triazolo[1,5-a]pyridin-2-yl)amino)cyclopentyl)amino)pyridin-3-yl)isoindolin-1-one] | 4700 | 6.3 | 
7 | Cc1ccc2c(c1)CN(c1ccc(N[C@H]3CC[C@H](Nc4nc5cc(C(F)(F)F)ccn5n4)C3)nc1)C2=O [Example 85, 5-methyl-2-(6-(((1S,3S)-3-((7-(trifluoromethyl)-[1,2,4]triazolo[1,5-a]pyridin-2-yl)amino)cyclopentyl)amino)pyridin-3-yl)isoindolin-1-one] | 2600 |  | 
8 | O=C1c2ccc(F)cc2CN1c1ccc(N[C@H]2CC[C@H](Nc3nc4cc(C(F)(F)F)ccn4n3)C2)nc1 [Example 86, 5-fluoro-2-(6-(((1S,3S)-3-((7-(trifluoromethyl)-[1,2,4]triazolo[1,5-a]pyridin-2-yl)amino)cyclopentyl)amino)pyridin-3-yl)isoindolin-1-one] | 900 |  | 
9 | Cn1c2ccccc2c(=O)n1-c1ccc(N[C@H]2CC[C@H](Nc3nc4cc(C(F)(F)F)ccn4n3)C2)nc1 [Example 87] | 600 |  | 
10 | Cc1cc2c(c(C#N)n1)CN(c1ccc(N[C@H]3CC[C@H](Nc4nc5cc(C(F)(F)F)ccn5n4)C3)nc1)C2=O [Example 90, 6-methyl-1-carbonyl-2-(6-(((1S,3S)-3-((7-(trifluoromethyl)-[1,2,4]triazolo[1,5-a]pyridin-2-yl)amino)cyclopentyl)amino)pyridin-3-yl)-2,3-dihydro-1H-pyrrolo[3,4-c]pyridine-4-carbonitrile] | 2700 |  | 
11 | O=C1c2ncc(Cl)cc2CN1c1ccc(N[C@H]2CC[C@H](Nc3nc4cc(C(F)(F)F)ccn4n3)C2)nc1 [Example 95] | 700 |  | 
12 | N#Cc1cnc2c(c1)CN(c1ccc(N[C@H]3CC[C@H](Nc4nc5cc(C(F)(F)F)ccn5n4)C3)nc1)C2=O [Example 96] | 12700 |  | 
13 | Cc1cc2c(cn1)CN(c1ccc(N[C@H]3CC[C@H](Nc4nc5cc(OC(F)F)ccn5n4)C3)nc1)C2=O [Example 99] | 6600 |  | AUC(0-inf) [2]: 27900 ng·h/mL; half-life [2]: 2.7 h; MRT [2]: 3.4 h; Cmax [2]: 7240 ng/mL; Tmax [2]: 0.25 h
14 | Cc1nccc2c1CN(c1ccc(N[C@H]3CC[C@H](Nc4nc5cc(OC(F)F)ccn5n4)C3)nc1)C2=O [Example 100] | 5000 |  | 
15 | O=c1nc(O)ccn1-c1ccc(N[C@H]2CC[C@H](Nc3nc4cc(Cl)ccn4n3)C2)nc1 [Example 103] | 1400 |  | 
16 | Cc1cc(N[C@H]2CC[C@H](Nc3nc4cc(C(F)(F)F)ccn4n3)C2)ncc1N1Cc2cccnc2C1=O [Example 113] | 6900 |  | 
17 | O=C1c2cc(Cl)cnc2CN1c1ccc(N[C@H]2CC[C@H](Nc3nc4cc(OC(F)F)ccn4n3)C2)nc1 [Example 130] | 1500 |  | AUC(0-inf) [2]: 57900 ng·h/mL; half-life [2]: 3.6 h; MRT [2]: 6.1 h; Cmax [2]: 5090 ng/mL; Tmax [2]: 1 h
18 | O=C1c2cccnc2CN1c1cnc(N[C@H]2CC[C@H](Nc3nc4cc(C(F)(F)F)ccn4n3)C2)c(F)c1 [Example 162] | 5300 |  | 
19 | O=c1ccccn1-c1ccc(N[C@H]2CC[C@H](Nc3nc4cc(C(F)(F)F)ccn4n3)C2)nc1 [Example 426] | 14000 |  | 
20 | O=c1ccccn1-c1ccc(N[C@H]2CC[C@H](Nc3nc4cc(C5CC5)ccn4n3)C2)nc1 [Example 427] | 22300 |  | 

Reference: patent publication US12612403B2, “Nitrogen-containing heterocyclic derivative inhibitor, and preparation method therefor and use thereof” (SHANGHAI HANSOH BIOMEDICAL CO., LTD., priority 2024, dated 2026)
